According to patent US9580416B2, “Inhibitors of Bruton's tyrosine kinase” (PHARMACYCLICS LLC, priority 2014, dated 2017):
Read-outs that look alike come from different tables or passages of the source.

Key:
Type in all cases: biochemical
[1] = biological target: Btk (Homo sapiens, UniProt Q06187); test: Btk kinase activity, TR-FRET assay
How it was run: (§1)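 Enzyme (Btk 0.5 nM; Lck 6 nM) reacted 1 h with inhibitor, ATP at Km and biotin-peptide substrate in pH 7.4 buffer, 10% DMSO. Phosphopeptide detected by Eu-p-Tyr100 antibody plus streptavidin-APC (665/615 nm). IC50 calculated from fitted Ki(app) via ATP/Km correction plus half total enzyme.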

[2] = biological target: T1, JAK3 (Homo sapiens, UniProt P52333); test: Inhibition of a panel of kinases, in vitro HotSpot kinase assay: JAK3
T1 sequence (P52333 1-1124): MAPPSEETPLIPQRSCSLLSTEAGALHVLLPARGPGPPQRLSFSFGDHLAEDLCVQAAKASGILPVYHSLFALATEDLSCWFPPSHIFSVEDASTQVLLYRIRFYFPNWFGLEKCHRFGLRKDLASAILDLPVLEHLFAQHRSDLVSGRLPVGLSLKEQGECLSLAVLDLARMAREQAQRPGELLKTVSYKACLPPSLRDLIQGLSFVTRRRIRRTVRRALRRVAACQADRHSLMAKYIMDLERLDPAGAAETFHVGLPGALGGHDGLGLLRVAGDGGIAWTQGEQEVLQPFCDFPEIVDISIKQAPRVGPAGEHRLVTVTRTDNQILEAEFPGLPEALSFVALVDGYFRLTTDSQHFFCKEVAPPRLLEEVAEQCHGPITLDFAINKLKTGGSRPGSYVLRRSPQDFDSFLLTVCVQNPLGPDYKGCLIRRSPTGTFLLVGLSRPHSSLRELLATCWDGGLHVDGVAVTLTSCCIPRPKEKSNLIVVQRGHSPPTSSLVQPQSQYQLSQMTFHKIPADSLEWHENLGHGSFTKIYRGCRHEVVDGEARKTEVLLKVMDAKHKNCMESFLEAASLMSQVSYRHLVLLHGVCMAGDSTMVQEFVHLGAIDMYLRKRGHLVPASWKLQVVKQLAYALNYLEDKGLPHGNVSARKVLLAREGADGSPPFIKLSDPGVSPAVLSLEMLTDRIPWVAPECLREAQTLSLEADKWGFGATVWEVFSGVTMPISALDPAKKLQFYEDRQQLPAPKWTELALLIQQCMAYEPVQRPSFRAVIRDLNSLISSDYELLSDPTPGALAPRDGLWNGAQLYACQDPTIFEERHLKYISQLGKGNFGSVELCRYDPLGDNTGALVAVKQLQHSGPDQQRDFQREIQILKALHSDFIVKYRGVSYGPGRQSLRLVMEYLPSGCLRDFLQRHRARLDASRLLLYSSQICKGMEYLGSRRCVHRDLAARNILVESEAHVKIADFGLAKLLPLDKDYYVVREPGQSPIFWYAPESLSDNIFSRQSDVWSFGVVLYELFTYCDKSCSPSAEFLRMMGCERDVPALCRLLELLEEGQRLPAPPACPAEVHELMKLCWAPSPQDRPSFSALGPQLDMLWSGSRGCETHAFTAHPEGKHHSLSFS
Method: (§2) The degree of inhibition of a panel of kinases is determined using the in vitro HotSpot kinase assay (purified enzymes, ^33P-ATP, an appropriate substrate and 1 uM ATP).

[3] = biological target: Lck (Homo sapiens, UniProt P06239); test: Lck kinase activity, TR-FRET assay
How it was run: as §1

[4] = biological target: EGFR (Homo sapiens, UniProt P00533); test: Inhibition of a panel of kinases, in vitro HotSpot kinase assay: EGFR
Method: as §2

Chain of EGFR (P00533 25-1210): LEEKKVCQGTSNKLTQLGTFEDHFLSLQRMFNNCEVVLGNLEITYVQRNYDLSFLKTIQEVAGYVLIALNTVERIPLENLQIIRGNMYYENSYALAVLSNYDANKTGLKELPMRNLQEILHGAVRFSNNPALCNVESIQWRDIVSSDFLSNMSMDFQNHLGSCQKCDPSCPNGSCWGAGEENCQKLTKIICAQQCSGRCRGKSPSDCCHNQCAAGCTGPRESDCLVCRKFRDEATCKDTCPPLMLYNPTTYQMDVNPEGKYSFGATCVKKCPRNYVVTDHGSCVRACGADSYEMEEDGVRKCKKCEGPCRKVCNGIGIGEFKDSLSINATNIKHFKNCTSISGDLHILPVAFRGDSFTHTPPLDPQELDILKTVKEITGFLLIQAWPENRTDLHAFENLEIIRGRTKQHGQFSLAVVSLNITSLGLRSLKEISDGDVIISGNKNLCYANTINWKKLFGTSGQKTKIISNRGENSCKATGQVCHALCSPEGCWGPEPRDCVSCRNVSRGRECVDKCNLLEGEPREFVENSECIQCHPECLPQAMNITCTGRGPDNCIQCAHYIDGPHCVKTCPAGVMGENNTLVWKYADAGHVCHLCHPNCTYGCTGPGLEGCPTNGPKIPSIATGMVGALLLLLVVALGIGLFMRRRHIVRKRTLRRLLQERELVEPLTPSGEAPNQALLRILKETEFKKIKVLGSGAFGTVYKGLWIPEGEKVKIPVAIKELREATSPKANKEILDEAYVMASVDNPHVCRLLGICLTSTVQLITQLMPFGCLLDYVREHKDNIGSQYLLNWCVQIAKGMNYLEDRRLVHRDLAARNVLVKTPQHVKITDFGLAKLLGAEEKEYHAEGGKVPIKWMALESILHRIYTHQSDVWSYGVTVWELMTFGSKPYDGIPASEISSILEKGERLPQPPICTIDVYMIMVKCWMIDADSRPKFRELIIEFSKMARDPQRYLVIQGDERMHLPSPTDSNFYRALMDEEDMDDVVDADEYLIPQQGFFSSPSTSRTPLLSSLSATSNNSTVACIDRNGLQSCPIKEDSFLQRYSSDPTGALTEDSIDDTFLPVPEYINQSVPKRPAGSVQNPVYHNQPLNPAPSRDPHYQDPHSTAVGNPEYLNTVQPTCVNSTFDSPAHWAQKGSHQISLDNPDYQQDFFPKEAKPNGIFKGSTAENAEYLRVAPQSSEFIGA
Chain of Btk (Q06187 whole entry): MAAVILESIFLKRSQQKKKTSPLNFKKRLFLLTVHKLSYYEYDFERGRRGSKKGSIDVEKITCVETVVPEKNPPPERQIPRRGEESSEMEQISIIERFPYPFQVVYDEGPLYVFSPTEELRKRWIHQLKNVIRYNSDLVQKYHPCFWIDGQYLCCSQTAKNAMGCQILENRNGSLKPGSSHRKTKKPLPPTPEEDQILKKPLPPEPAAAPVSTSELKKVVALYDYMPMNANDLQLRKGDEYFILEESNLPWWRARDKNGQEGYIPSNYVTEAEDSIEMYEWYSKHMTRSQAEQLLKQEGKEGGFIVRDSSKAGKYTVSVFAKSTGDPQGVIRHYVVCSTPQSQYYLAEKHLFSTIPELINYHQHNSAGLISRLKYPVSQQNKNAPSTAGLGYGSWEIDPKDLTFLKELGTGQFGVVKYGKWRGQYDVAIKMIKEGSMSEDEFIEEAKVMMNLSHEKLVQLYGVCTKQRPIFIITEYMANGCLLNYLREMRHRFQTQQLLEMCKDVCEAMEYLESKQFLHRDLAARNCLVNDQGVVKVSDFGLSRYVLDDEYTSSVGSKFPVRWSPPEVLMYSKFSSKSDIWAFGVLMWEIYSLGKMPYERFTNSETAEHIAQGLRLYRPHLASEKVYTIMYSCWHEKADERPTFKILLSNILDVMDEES
Chain of Lck (P06239 whole entry, species assumed): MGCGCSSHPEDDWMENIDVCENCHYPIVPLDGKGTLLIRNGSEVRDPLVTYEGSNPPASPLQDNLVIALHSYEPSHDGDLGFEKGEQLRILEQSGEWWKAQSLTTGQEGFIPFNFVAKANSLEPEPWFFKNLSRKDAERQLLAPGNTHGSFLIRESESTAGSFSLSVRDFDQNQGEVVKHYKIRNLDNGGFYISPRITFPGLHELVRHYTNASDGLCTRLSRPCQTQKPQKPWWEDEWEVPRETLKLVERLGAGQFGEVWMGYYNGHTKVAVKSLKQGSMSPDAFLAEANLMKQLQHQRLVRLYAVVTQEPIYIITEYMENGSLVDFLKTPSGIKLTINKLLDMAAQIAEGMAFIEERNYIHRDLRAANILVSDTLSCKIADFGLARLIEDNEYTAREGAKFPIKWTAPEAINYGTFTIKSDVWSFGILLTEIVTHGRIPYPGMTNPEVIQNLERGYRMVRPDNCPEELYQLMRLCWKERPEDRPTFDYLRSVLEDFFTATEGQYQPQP

| Structure (SMILES) | IC50 ([1]; read-out: Btk (IC50)) [nM] | IC50 [2] [µM] | IC50 ([3]; read-out: LCK (IC50)) [nM] | IC50 [4] [µM] | IC50 [1] [nM] | IC50 [3] [nM] |
| --- | --- | --- | --- | --- | --- | --- |
| CCC(=O)N1CCC[C@@H](Nc2n[nH]c3nccc(Oc4ccc(C(=O)Nc5cc(C(F)(F)F)ccn5)cc4)c23)C1 [compound 225, 4-[(3-{[(3R)-1-propanoylpiperidin-3-yl]amino}-1H-pyrazolo[3,4-b]pyridin-4-yl)oxy]-N-[4-(trifluoromethyl)pyridin-2-yl]benzamide] | < 100 | > 10 | 100 to 1000 | 0.1 to 1 |  |  |
| Cc1ccnc(NC(=O)c2ccc(Oc3ccnc4[nH]nc(N[C@@H]5CCCN(C(=O)Oc6ccccc6)C5)c34)cc2)c1 [compound 93, phenyl (3R)-3-[(4-{4-[(4-methylpyridin-2-yl)carbamoyl]phenoxy}-1H-pyrazolo[3,4-b]pyridin-3-yl)amino]piperidine-1-carboxylate] |  | > 10 |  | > 10 | 100 to 1000 | 1000 to 10000 |
| CC#CC(=O)N1CCC[C@@H](Nc2n[nH]c3nccc(Oc4ccc(C(=O)Nc5cc(C(F)(F)F)ccn5)cc4)c23)C1 [compound 205, 4-[(3-{[(3R)-1-(but-2-ynoyl)piperidin-3-yl]amino}-1H-pyrazolo[3,4-b]pyridin-4-yl)oxy]-N-[4-(trifluoromethyl)pyridin-2-yl]benzamide] | < 100 | > 10 | 100 to 1000 | 1 to 10 |  |  |
| Cc1csc(NC(=O)c2ccc(Oc3ccnc4[nH]nc(N[C@@H]5CCCN(C(=O)/C=C/CN(C)C6CC6)C5)c34)cc2)n1 [compound 139] | 100 to 1000 | 1 to 10 | > 10000 | 1 to 10 |  |  |
| C=CC(=O)N1CCC[C@@H](Nc2n[nH]c3nccc(Oc4ccc(-c5nc(C(F)(F)F)c[nH]5)cc4)c23)C1 [compound 154] | < 100 | 1 to 10 | > 10000 | 1 to 10 |  |  |
| CCNC(=O)N1CCC[C@@H](Nc2n[nH]c3nccc(Oc4ccc(C(=O)Nc5cc(C(F)(F)F)ccn5)cc4)c23)C1 [compound 207, (3R)-N-ethyl-3-{[4-(4-{[4-(trifluoromethyl)pyridin-2-yl]carbamoyl}phenoxy)-1H-pyrazolo[3,4-b]pyridin-3-yl]amino}piperidine-1-carboxamide] | < 100 | > 10 | 100 to 1000 | 1 to 10 |  |  |
| C=CC(=O)N1CCC[C@@H](Nc2n[nH]c3nccc(Oc4ccc(C(=O)Nc5cc(C(F)(F)F)ccn5)cc4)c23)C1 [compound 203, 4-[(3-{[(3R)-1-(prop-2-enoyl)piperidin-3-yl]amino}-1H-pyrazoo[3,4-b]pyridin-4-yl)oxy]-N-[4-(trifluoromethyl)pyridin-2-yl]benzamide] | < 100 | 0.1 to 1 | 100 to 1000 | < 0.1 |  |  |
| CN(C)C/C=C/C(=O)N1CC[C@@H](Nc2n[nH]c3nccc(Oc4ccc(Oc5ccccc5)cc4)c23)C1 [compound 5, (2E)-4-(dimethylamino)-1-[(3R)-3-{[4-(4-phenoxyphenoxy)-1H-pyrazolo[3,4-b]pyridin-3-yl]amino}pyrrolidin-1-yl]but-2-en-1-one] | < 100 | > 10 | < 100 | < 0.1 |  |  |
| C=CC(=O)N1CCC[C@@H](Nc2n[nH]c3nccc(Oc4ccc(-c5nc6ccccc6o5)cc4)c23)C1 [compound 194, 1-[(3R)-3-({4-[4-(1,3-benzoxazol-2-yl)phenoxy]-1H-pyrazolo[3,4-b]pyridin-3-yl}amino)piperidin-1-yl]prop-2-en-1-one] | < 100 | 0.1 to 1 | 1000 to 10000 | 1 to 10 |  |  |

Continued, in another order:

| IC50 ([1]; read-out: Btk (IC50)) [nM] | IC50 [2] [µM] | IC50 ([3]; read-out: LCK (IC50)) [nM] | IC50 [4] [µM] | Structure (SMILES) | IC50 [1] [nM] | IC50 [3] [nM] |
| --- | --- | --- | --- | --- | --- | --- |
| 100 to 1000 | > 10 | 1000 to 10000 | > 10 | Cc1cccc(NC(=O)c2ccc(Oc3ccnc4[nH]nc(N[C@@H]5CCCN(C(=O)C6(C)CCOCC6)C5)c34)cc2)n1 [compound 114, 4-[(3-{[(3R)-1-(4-methyloxane-4-carbonyl)piperidin-3-yl]amino}-1H-pyrazolo[3,4-b]pyridin-4-yl)oxy]-N-(6-methylpyridin-2-yl)benzamide] |  |  |
| 100 to 1000 | > 10 | 100 to 1000 | > 10 | Cc1ccnc(NC(=O)c2ccc(Oc3ccnc4[nH]nc(NC5CCN(C(=O)C6(C)CCN(C)CC6)CC5)c34)cc2)c1 [compound 284, 4-(3-(1-(1,4-dimethylpiperidine-4-carbonyl)piperidin-4-ylamino)-1H-pyrazolo[3,4-b]pyridin-4-yloxy)-N-(4-methylpyridin-2-yl)benzamide] |  |  |
| < 100 | > 10 | 1000 to 10000 | > 10 | Cc1ccnc(NC(=O)c2ccc(Oc3ccnc4[nH]nc(N[C@@H]5CCCN(C(=O)C6CCCC6)C5)c34)cc2)c1 [compound 107, 4-[(3-{[(3R)-1-cyclopentanecarbonylpiperidin-3-yl]amino}-1H-pyrazolo[3,4-b]pyridin-4-yl)oxy]-N-(4-methylpyridin-2-yl)benzamide] |  |  |
| < 100 | > 10 | 100 to 1000 | 1 to 10 | Cc1ccnc(NC(=O)c2ccc(Oc3ccnc4[nH]nc(N[C@@H]5CCCN(C(=O)C6CCNCC6)C5)c34)cc2)c1 [compound 96, N-(4-methylpyridin-2-yl)-4-[(3-{[(3R)-1-(piperidin-4-carbonyl)piperidin-3-yl]amino}-1H-pyrazolo[3,4-b]pyridin-4-yl)oxy]benzamide] |  |  |
| 100 to 1000 | > 10 | 1000 to 10000 | 1 to 10 | O=C(Nc1cc(C(F)(F)F)ccn1)c1ccc(Oc2ccnc3[nH]nc(C4CCCN(C(=O)C5CC5)C4)c23)cc1 (stereo not shown) [compound 218, 4-{[3-(1-cyclopropanecarbonylpiperidin-3-yl)-1H-pyrazolo[3,4-b]pyridin-4-yl]oxy}-N-[4-(trifluoromethyl)pyridin-2-yl]benzamide] |  |  |
| < 100 | > 10 | < 100 | 1 to 10 | Cc1ccnc(NC(=O)c2ccc(Oc3ccnc4[nH]nc(N[C@@H]5CCCN(C(=O)CCN(C)C)C5)c34)cc2)c1 [compound 118, 4-[(3-{[(3R)-1-[3-(dimethylamino)propanoyl]piperidin-3-yl]amino}-1H-pyrazolo[3,4-b]pyridin-4-yl)oxy]-N-(4-methylpyridin-2-yl)benzamide] |  |  |
| < 100 | > 10 | 100 to 1000 | 1 to 10 | Cc1ccnc(NC(=O)c2ccc(Oc3ccnc4[nH]nc(N[C@@H]5CCCN(C(=O)[C@H]6CCOC6)C5)c34)cc2)c1 [compound 116, N-(4-methylpyridin-2-yl)-4-[(3-{[(3R)-1-[(3S)-oxolane-3-carbonyl]piperidin-3-yl]amino}-1H-pyrazolo[3,4-b]pyridin-4-yl)oxy]benzamide] |  |  |
| < 100 | > 10 | 100 to 1000 | 1 to 10 | CNC(=O)C(=O)N1CCC[C@@H](Nc2n[nH]c3nccc(Oc4ccc(C(=O)Nc5cc(C)ccn5)cc4)c23)C1 [compound 97, 4-[(3-{[(3R)-1-[(methylcarbamoyl)carbonyl]piperidin-3-yl]amino}-1H-pyrazolo[3,4-b]pyridin-4-yl)oxy]-N-(4-methylpyridin-2-yl)benzamide] |  |  |
| 100 to 1000 | > 10 | 1000 to 10000 | > 10 | Cc1cc(NC(=O)c2cccc(Nc3ccnc4[nH]nc(O[C@@H]5CCCN(C(=O)C6CC6)C5)c34)c2)ccc1C(C)C [compound 134, 3-[(3-{[(3R)-1-cyclopropanecarbonylpiperidin-3-yl]oxy}-1H-pyrazolo[3,4-b]pyridin-4-yl)amino]-N-[3-methyl-4-(propan-2-yl)phenyl]benzamide] |  |  |
| 100 to 1000 | > 10 | 1000 to 10000 | 1 to 10 | Cc1cnc(NC(=O)c2ccc(Oc3ccnc4[nH]nc(C5CCCN(C(=O)C6CCN(C)CC6)C5)c34)cc2)s1 (stereo not shown) [compound 217, N-(5-methyl-1,3-thiazol-2-yl)-4-({3-[1-(1-methylpiperidine-4-carbonyl)piperidin-3-yl]-1H-pyrazolo[3,4-b]pyridin-4-yl}oxy)benzamide] |  |  |
